Test results as given in paper PMC7604896, “Synthesis and Antiviral Properties of 1-Substituted 3-[ω-(4-Oxoquinazolin-4(3H)-yl)alkyl]uracil Derivatives” (Acta Naturae, 2020).

Tests used:
[1] = Cytotoxicity, inhibition of cell growth in HEL cell culture; format: cell-based; conditions: human; HEL cells; concentration reducing cell growth by 50%
[2] = system: HCMV AD-169; test: Anti-HCMV assay (AD-169 strain), inhibition of virus-induced cytopathicity or plaque formation in HEL fibroblasts; format: cell-based, human cytomegalovirus; conditions: HEL cell culture; for EC50: Human betaherpesvirus 5, AD169, concentration reducing virus plaque formation by 50%, read-out: Antiviral activity, EC50 HCMV AD-169; for Inhibitory properties against HCMV (in words): AD-169 and Davis strains
Method: (§1) The compounds were evaluated against human cytomegalovirus (HCMV, strains AD-169 and Davis) and the varicella zoster virus (VZV, strains OKA and YS). The antiviral assays were based on the inhibition of virus-induced cytopathicity or plaque formation in human embryonic lung (HEL) fibroblasts. Confluent cell cultures in 96-well microplates were inoculated with 100 CCID50 of the virus (1 CCID50 being the virus dose to infect 50% of the cell culture) or 10 or 100 plaque-forming units (PFU) (for VZV and HCMV) in the presence of varied concentrations of the test compounds. Viral cytopathicity or plaque formation was recorded as soon as it reached completion in the control virus-infected cell cultures not treated with the test compounds.

[3] = system: HCMV Davis; test: Anti-HCMV assay (Davis strain), inhibition of virus-induced cytopathicity or plaque formation in HEL fibroblasts; format: cell-based, human cytomegalovirus; conditions: Human betaherpesvirus 5; HEL cell culture; concentration reducing virus plaque formation by 50%; read-out: Antiviral activity, EC50 HCMV Davis
Method: as §1

[4] = system: VZV Oka (TK+); test: microbe, parasite or virus in culture; format: cell-based, varicella zoster virus; conditions: Human alphaherpesvirus 3, HEL, read-out: Antiviral activity, EC50 VZV Oka (TK+)
Method: as §1

[5] = system: VZV 07-1 (TK-); test: microbe, parasite or virus in culture; format: cell-based, varicella zoster virus; conditions: Human alphaherpesvirus 3, HEL, read-out: Antiviral activity, EC50 VZV 07-1 (TK-)
[6] = system: HEL cells; test: Cytotoxicity, alteration of cell morphology in HEL cell culture; format: cell-based, human; conditions: minimum cytotoxic concentration causing microscopically detectable alteration of cell morphology

Row | Structure (SMILES) | CC50 [1] [µM] | EC50 [2] [µM] | EC50 [3] [µM] | EC50 [4] [µM] | EC50 [5] [µM] | Cytotoxicity, Cell morphology MCC [6] [μM] | melting point [°C] | Inhibitory properties against HCMV (in words) [2]
1 | Nc1nc2c(ncn2COCCO)c(=O)[nH]1 [Acyclovir, reference compound] | > 100 |  |  |  |  |  |  | 
2 | O=c1c2ccccc2ncn1CCn1c(=O)ccn(CCCCCCCCOc2ccc(Br)cc2)c1=O [Compound 13, 1-[8-(4-Bromophenoxy)octyl]-3-[2-(4-oxoquinazolin-4(3H)-yl)ethyl]uracil] | 12.8 | > 100 | > 100 | > 100 | > 100 | > 100 | 171.5 to 173 | 
3 | O=c1c2ccccc2ncn1CCn1c(=O)ccn(CCCCCCCCCCCCOc2ccc(Br)cc2)c1=O [Compound 15, 1-[12-(4-Bromophenoxy)dodecyl]-3-[2-(4-oxoquinazolin-4(3H)-yl)ethyl]uracil] | > 100 | > 100 | > 100 | > 100 | > 100 | ≥ 100 | 150 to 152 | 
4 | O=c1[nH]c(=O)n([C@H]2C[C@H](O)[C@@H](CO)O2)cc1/C=C/Br [Brivudine, reference compound] | > 100 |  |  | 0.039 | 6.04 | > 300 |  | 
5 | Cc1ccc2ncn(CCn3c(=O)ccn(CCCCCOc4ccc(Br)cc4)c3=O)c(=O)c2c1 [Compound 18, 1-[5-(4-Bromophenoxy)pentyl]-3-[2-(6-methyl-4-oxoquinazolin-4(3H)-yl)ethyl]uracil] | > 100 | > 100 | > 100 | > 100 | > 100 | > 100 | 180 to 181.5 | complete loss of inhibitory properties
6 | O=c1c2ccccc2ncn1CCn1c(=O)ccn(CCCCCCOc2ccc(Br)cc2)c1=O [Compound 12, 1-[6-(4-Bromophenoxy)hexyl]-3-[2-(4-oxoquinazolin-4(3H)-yl)ethyl]uracil] |  | > 100 | > 20 | > 100 | > 100 | 100 | 178.5 to 179.5 | 
7 | Nc1nc(O)c2ncn(COC(CO)CO)c2n1 [Ganciclovir, reference compound] | 196 | 2.4 | 2.01 |  |  | 350 |  | 
8 | O=c1c2ccccc2ncn1CCn1c(=O)ccn(CCCOc2ccc(Br)cc2)c1=O [Compound 9, 1-[3-(4-Bromophenoxy)propyl]-3-[2-(4-oxoquinazolin-4(3H)-yl)ethyl]uracil] |  | > 100 | > 100 | > 100 | > 100 | 100 | 178.5 to 179.5 | complete loss of inhibitory properties
9 | Nc1ccn(C[C@@H](CO)OCP(=O)(O)O)c(=O)n1 [Cidofovir, reference compound] | 129 | 0.38 | 0.38 |  |  | 300 |  | 
10 | O=c1c2ccccc2ncn1CCn1c(=O)ccn(CCCCCCCCCCOc2ccc(Br)cc2)c1=O [Compound 14, 1-[10-(4-Bromophenoxy)decyl]-3-[2-(4-oxoquinazolin-4(3H)-yl)ethyl]uracil] | > 100 | > 100 | > 100 | > 100 | > 100 | > 100 | 161 to 162 | 
11 | O=c1c2ccccc2ncn1CCCn1c(=O)ccn(CCCCCOc2ccc(Br)cc2)c1=O [Compound 17, 1-[5-(4-Bromophenoxy)pentyl]-3-[3-(4-oxoquinazolin-4(3H)-yl)propyl]uracil] | 1.81 | 7.31 | 5.23 | 29 | 29 | 20 | 103.5 to 104.5 | 
12 | O=c1c2ccc(Cl)cc2ncn1CCn1c(=O)ccn(CCCCCOc2ccc(Br)cc2)c1=O [Compound 16, 1-[5-(4-Bromophenoxy)pentyl]-3-[2-(7-chloro-4-oxoquinazolin-4(3H)-yl)ethyl]uracil] |  | > 20 | > 20 | > 20 | > 100 | 20 | 154 to 155 | complete loss of inhibitory properties
13 | O=c1c2ccccc2ncn1CCn1c(=O)ccn(CCCCOc2ccc(Br)cc2)c1=O [Compound 10, 1-[4-(4-Bromophenoxy)butyl]-3-[2-(4-oxoquinazolin-4(3H)-yl)ethyl]uracil] |  | > 20 | > 100 | > 20 | > 100 | 20 | 191 to 192 | complete loss of inhibitory properties
14 | O=c1c2ccccc2ncn1CCn1c(=O)ccn(CCCCCOc2ccc(Br)cc2)c1=O [Compound 11, 1-[5-(4-Bromophenoxy)pentyl]-3-[2-(4-oxoquinazolin-4(3H)-yl)ethyl]uracil] |  | > 20 | > 20 | > 20 | > 100 | 100 | 174.5 to 176 | complete loss of inhibitory properties
